Columns and labels:
Assay type in all cases: cell-based
NIH3T3 or HFL = experiment: Cell cycle analysis, normal cell lines
[1] = Trypan blue exclusion viability assay, normal fibroblast cell lines; conditions: mouse (NIH3T3), human (HFL), NIH3T3 and HFL cells (normal fibroblast cell lines), 2.5 and 5.0 μM, read-out: percent viability
Experimental: (§1) The effect of FR-20 on the growth of normal and tumor cells of breast and prostate was examine utilizing nine cell lines: NIH/3T3 and HFL (normal fibroblast cell lines); MCF-7 and 361 ([…] breast tumor cell lines); BT-20, 435 and SKBR-3 ([…] breast tumor cell lines); LnCaP (androgen sensitive prostate tumor cell line); PC-3 and DU-145 (androgen insensitive prostate tumor cell line).
(§2) The cells were grown as in Example 22, A. FR-20 was dissolved in DMSO and added to the cells at 2.5 μM and 5.0 μM concentration. To control cells, DMSO was added equivalent to the volume of solvent (DMSO) present at the highest concentration of the compound. The activity of the compound was evaluated after 48 hours by Trypan blue exclusion. […] Nearly 50% of SKBR-3 and BT-20 cells were dead at 2.5 μM and 75% at 5.0 μM concentration of the compound. […] FRI-20 had profound effect on the viability of androgen-dependent LnCaP prostate tumor cell line when compared to androgen-independent DU-145 and PC-3 prostate cell lines. At […] FRI-20, 80% of LnCaP, 40% of PC-3 and 20% of DU-145 cells were killed. At […] FRI-20, 72% of LnCaP, 47% of PC-3 and 40% of DU-145 were killed (FIG. 3B).

SK-MEL-28 = experiment: GI50 growth inhibition, trypan blue cell count; conditions: Homo sapiens, melanoma, 96 hours after addition
Experimental: The human carcinoma cell lines listed in Table 5 below were purchased from ATCC and grown in an appropriate growth medium containing 10% fetal bovine serum (FBS) and antibiotics. The cells were plated at a cell density of 1.0×10^5 cells per […] in 6-well dishes. The cells were treated with various concentrations of (E)-fluorostyryl-4-bromobenzylsulfone 24 hours after plating in a total volume of 1 ml of medium using dimethylsulfoxide (DMSO) as a solvent for the compound. Control cells were treated with DMSO alone. The total number of viable cells was determined 96 hours after the addition of the compound by counting the cells in each well using a hemacytometer after trypan blue staining (viable cells exclude the stain). The counts were done in duplicate and the average was graphed in FIG. 8 as a percentage of the non-treated control group.

JNK = JNK immune complex kinase assay with GST-c-Jun substrate, treated cells; conditions: 48 hours treatment; NIH3T3, MCF-7 or LnCaP
Experimental: To further establish if the activity of stress activated protein kinases (SAPKs), of which JNK is a member, is compromised in the presence of FRI-20, cells (NIH3T3, MCF-7 or LnCaP) were treated with FRI-20 dissolved in DMSO or with DMSO alone. Forty-eight hours later, the cells were lysed with kinase buffer and the lysates used for estimation of the amount of JNK present in each lysate by western blot analysis using JNK polyclonal antibody. The biochemical activity of the JNK present in the FRI-20-treated and mock-treated cell lysates was also determined by immunoprecipitation of JNK followed by incubation with GST-c-Jun protein as a substrate for JNK in the presence of [γ-^32P]ATP.
Accordingly, JNK-1 in 100 mg of cell extracts was immunoprecipitated by incubating the lysate with […] of JNK-1 polyclonal antibody (sc from Santa Cruz Biotechnology) for one hour followed by an additional incubation with 20 μl of protein A-Sepharose (Pharmacia) for one hour. The beads were washed twice with JNK lysis buffer (as described above) followed by two washes with JNK reaction buffer. The beads were resuspended in 40 μl of JNK buffer containing […] [γ-^32P] […] The reaction was stopped, and the radioactivity in the phosphorylated GST-c-Jun protein was quantitated.

[2] = system: MCF-7, HTB126, T470 and 435 cells; experiment: Trypan blue exclusion viability assay, breast tumor cell lines; conditions: 48 hours
Experimental: as §1, §2

SKBR-3 and BT-20 cells = experiment: as above; conditions: 48 hours
Experimental: as §1, §2

PC-3 cells = experiment: Trypan blue exclusion viability assay, prostate tumor cell line; parameters: unit of the concentration uncertain; conditions: 48 hours
Experimental: as §1, §2

[3] = system: LnCaP prostate tumor cell line; experiment: as above; parameters: unit of the concentration uncertain; conditions: 48 hours
Experimental: as §1, §2

DU-145 cells = experiment: as above; parameters: unit of the concentration uncertain; conditions: 48 hours
Experimental: as §1, §2

ERK-2 = experiment: Western blot analysis of treated cell lysates with ERK-2 antibody; conditions: 2.5 and 5.0 μM, 48 hours; NIH3T3, LnCaP or MCF-7
Experimental: Cell lysates of FRI-20-treated cells were prepared for Western Blot analysis as follows. NIH3T3, LnCaP or MCF-7 cells were seeded at a density of 2×10^5 cells/per well in a six-well plate and allowed to grow for 24 hours. Fresh medium was added to each well 2 hours before treatment with FRI-20. The compound was dissolved in DMSO to make a 2 mM stock solution and added to the medium (2 ml) to obtain a final concentration of 2.5 and 5.0 μM. After 48 hours at 37° C., the cells were washed twice with 10 ml of ice cold phosphate-buffered saline and harvested in 400 μl of lysis buffer containing 25 mM HEPES (pH 7.6), 0.1% Triton X-100, 300 mM NaCl, 1.5 mM MgCl2, 20 mM β-glycerophosphate, 100 μM Na3VO4, 0.2 mM EDTA, 0.5 mM dithiothreitol, 2 μg/ml aprotinin, 2 μg/ml leupeptin, 100 μM […] and 1 mM benzamidine. The cell lysates were kept on ice for 30 minutes and centrifuged for 10 minutes in a microcentrifuge (16000 X g). The cell lysates were separated from the debris and normalized for protein content.
Western Blot analysis was carried out on the drug- and mock-treated cell lysates with ERK-2 antibody. Equal amounts of total protein (100 μg) were loaded in each lane of a SDS-PAGE gel (10-12%) and transferred to Immobilon-P (Millipore, USA). […] The antibody was detected using the ECL Western blotting analysis kit (Amersham) following the manufacturer's instructions.

With O=S(=O)(/C=C/c1ccc(F)cc1)Cc1ccc(Cl)cc1 [Example 11, E-4-fluorostyryl 4-chlorobenzyl Sulfone] the “effect on cell cycle progression” value (NIH3T3 or HFL) was “failed to produce a similar effect on cell cycle progression”, the viability at 48 h [1] was 85 to 90% and the GI50 (SK-MEL-28) was 2 µM. For the same compound, the “enhancement of JNK phosphorylation of GST-c-Jun compared to mock-treated cells” value (JNK) was 60-80%, the viability at 2.5 µM ([2]; 2.5 µM) was < 25% and the viability at 5 µM ([2]; 5.0 µM) was < 10%. It also gave a dead cells (SKBR-3 and BT-20 cells; 2.5 µM) of ~50%, a dead cells (SKBR-3 and BT-20 cells; 5.0 µM) of 75% and a cells killed (PC-3 cells; 2.5 µM) of 40%. The cells killed (PC-3 cells; 5.0 µM) was 47%, the cells killed ([3]; 2.5 µM) was 80% and the cells killed ([3]; 5.0 µM) was 72%. For the same compound, the cells killed (DU-145 cells; 2.5 µM) was 20%, the cells killed (DU-145 cells; 5.0 µM) was 40% and the “amount of ERK-2 protein in drug- and mock-treated lysates” value (ERK-2) was “the same amount of protein in both lysates”.
